According to PubChem BioAssay (NCI):
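Exposure lasted 48 hours, with cells grown in 96-well plates and compounds tested at five concentrations. At the TGI there is no net growth.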

How the values were obtained:
Assay in all cases: NCI anticancer screen, dose series, 48 h
[1] = tested on: 786-0 renal
[2] = tested on: A498 renal
[3] = tested on: A549 NSCLC
[4] = tested on: ACHN renal
[5] = tested on: CAKI-1 renal
[6] = tested on: COLO 205 colon
[7] = tested on: DLD-1 colon
[8] = tested on: DMS 114 small cell lung
[9] = tested on: DMS 273 small cell lung
[10] = tested on: HCC-2998 colon
[11] = tested on: HCT-116 colon
[12] = tested on: HCT-15 colon
[13] = tested on: HL-60(TB) leukemia
[14] = tested on: HOP-18 NSCLC
[15] = tested on: HOP-62 NSCLC
[16] = tested on: HOP-92 NSCLC
[17] = tested on: HT29 colon
[18] = tested on: KM12 colon
[19] = tested on: KM20L2 colon
[20] = tested on: LOX IMVI melanoma
[21] = tested on: LXFL 529 NSCLC
[22] = tested on: M14 melanoma
[23] = tested on: MALME-3M melanoma
[24] = tested on: MOLT-4 leukemia
[25] = tested on: NCI-H226 lung
[26] = tested on: NCI-H23 lung
[27] = tested on: NCI-H460 lung
[28] = tested on: NCI-H522 lung
[29] = tested on: OVCAR-4 ovarian
[30] = tested on: OVCAR-5 ovarian
[31] = tested on: RPMI-8226 leukemia
[32] = tested on: RXF 393 renal
[33] = tested on: RXF-631 renal
[34] = tested on: SF-268 CNS
[35] = tested on: SF-295 CNS
[36] = tested on: SK-MEL-2 melanoma
[37] = tested on: SK-MEL-28 melanoma
[38] = tested on: SK-MEL-5 melanoma
[39] = tested on: SK-OV-3 ovarian
[40] = tested on: SN12C renal
[41] = tested on: SNB-19 CNS
[42] = tested on: SNB-75 CNS
[43] = tested on: SNB-78 CNS
[44] = tested on: SR leukemia
[45] = tested on: SW-620 colon
[46] = tested on: TK-10 renal
[47] = tested on: U251 CNS
[48] = tested on: UACC-257 melanoma
[49] = tested on: XF 498 CNS
[50] = tested on: CCRF-CEM leukemia
[51] = tested on: EKVX NSCLC
[52] = tested on: IGROV1 ovarian
[53] = tested on: K-562 leukemia
[54] = tested on: M19-MEL melanoma
[55] = tested on: OVCAR-3 ovarian
[56] = tested on: OVCAR-8 ovarian
[57] = tested on: SF-539 CNS
[58] = tested on: UACC-62 melanoma
[59] = tested on: UO-31 renal

Nc1ncnc2c1ncn2[C@]1(CO)C=C(CO)C(O)C1O (stereo not given in full)
TGI [1]: > 100 µM
TGI [2]: > 100 µM
TGI [3]: > 100 µM
TGI [4]: > 100 µM
TGI [5]: > 100 µM
TGI [6]: > 100 µM
TGI [7]: > 100 µM
TGI [8]: > 100 µM
TGI [9]: > 100 µM
TGI [10]: > 100 µM
TGI [11]: > 100 µM
TGI [12]: > 100 µM
TGI [13]: > 100 µM
TGI [14]: > 100 µM
TGI [15]: > 100 µM
TGI [16]: > 100 µM
TGI [17]: > 100 µM
TGI [18]: > 100 µM
TGI [19]: > 100 µM
TGI [20]: > 100 µM
TGI [21]: > 100 µM
TGI [22]: > 100 µM
TGI [23]: > 100 µM
TGI [24]: > 100 µM
TGI [25]: > 100 µM
TGI [26]: > 100 µM
TGI [27]: > 100 µM
TGI [28]: > 100 µM
TGI [29]: > 100 µM
TGI [30]: > 100 µM
TGI [31]: > 100 µM
TGI [32]: > 100 µM
TGI [33]: > 100 µM
TGI [34]: > 100 µM
TGI [35]: > 100 µM
TGI [36]: > 100 µM
TGI [37]: > 100 µM
TGI [38]: > 100 µM
TGI [39]: > 100 µM
TGI [40]: > 100 µM
TGI [41]: > 100 µM
TGI [42]: > 100 µM
TGI [43]: > 100 µM
TGI [44]: > 100 µM
TGI [45]: > 100 µM
TGI [46]: > 100 µM
TGI [47]: > 100 µM
TGI [48]: > 100 µM
TGI [49]: > 100 µM

O=C(/C=C/c1cc(Cl)cc(Cl)c1O)c1cccc(O)c1
TGI [1]: > 100 µM
TGI [2]: > 100 µM
TGI [3]: > 100 µM
TGI [4]: > 100 µM
TGI [5]: > 100 µM
TGI [50]: > 100 µM
TGI [6]: 32.7 µM
TGI [7]: > 100 µM
TGI [8]: > 100 µM
TGI [9]: > 100 µM
TGI [51]: > 100 µM
TGI [10]: > 100 µM
TGI [11]: > 100 µM
TGI [12]: > 100 µM
TGI [13]: 93.9 µM
TGI [14]: > 100 µM
TGI [15]: > 100 µM
TGI [16]: 84.9 µM
TGI [17]: > 100 µM
TGI [52]: > 100 µM
TGI [53]: > 100 µM
TGI [18]: > 100 µM
TGI [19]: > 100 µM
TGI [20]: 25.5 µM
TGI [21]: > 100 µM
TGI [22]: > 100 µM
TGI [54]: 68.7 µM
TGI [23]: 87.3 µM
TGI [24]: 46.6 µM
TGI [25]: 30.6 µM
TGI [26]: > 100 µM
TGI [27]: > 100 µM
TGI [28]: > 100 µM
TGI [55]: > 100 µM
TGI [29]: > 100 µM
TGI [30]: 28.3 µM
TGI [56]: > 100 µM
TGI [31]: > 100 µM
TGI [32]: > 100 µM
TGI [34]: > 100 µM
TGI [35]: 28.5 µM
TGI [57]: 73.3 µM
TGI [36]: 61.7 µM
TGI [37]: > 100 µM
TGI [38]: > 100 µM
TGI [39]: > 100 µM
TGI [40]: 27.7 µM
TGI [41]: > 100 µM
TGI [42]: 94.4 µM
TGI [43]: > 100 µM
TGI [44]: 59.8 µM
TGI [45]: > 100 µM
TGI [46]: > 100 µM
TGI [47]: 80.4 µM
TGI [48]: > 100 µM
TGI [58]: > 100 µM
TGI [59]: > 100 µM

COC(=O)C(C(=O)C(=O)Nc1c(C)cccc1C)c1cnc2ccccc2n1 (stereo not given)
TGI [1]: > 100 µM
TGI [2]: > 100 µM
TGI [3]: > 100 µM
TGI [4]: > 100 µM
TGI [5]: > 100 µM
TGI [50]: > 100 µM
TGI [6]: > 100 µM
TGI [8]: > 100 µM
TGI [9]: > 100 µM
TGI [51]: > 100 µM
TGI [10]: > 100 µM
TGI [11]: > 100 µM
TGI [12]: > 100 µM
TGI [13]: > 100 µM
TGI [14]: > 100 µM
TGI [16]: > 100 µM
TGI [17]: > 100 µM
TGI [52]: > 100 µM
TGI [53]: > 100 µM
TGI [18]: > 100 µM
TGI [19]: > 100 µM
TGI [20]: > 100 µM
TGI [21]: > 100 µM
TGI [22]: > 100 µM
TGI [23]: > 100 µM
TGI [24]: > 100 µM
TGI [25]: > 100 µM
TGI [26]: > 100 µM
TGI [27]: > 100 µM
TGI [28]: > 100 µM
TGI [29]: > 100 µM
TGI [30]: > 100 µM
TGI [56]: > 100 µM
TGI [31]: > 100 µM
TGI [32]: > 100 µM
TGI [33]: > 100 µM
TGI [34]: > 100 µM
TGI [35]: > 100 µM
TGI [36]: > 100 µM
TGI [37]: > 100 µM
TGI [38]: > 100 µM
TGI [39]: > 100 µM
TGI [40]: > 100 µM
TGI [41]: > 100 µM
TGI [42]: > 100 µM
TGI [43]: > 100 µM
TGI [44]: > 100 µM
TGI [45]: > 100 µM
TGI [46]: > 100 µM
TGI [47]: > 100 µM
TGI [48]: > 100 µM
TGI [58]: > 100 µM
TGI [59]: > 100 µM
TGI [49]: > 100 µM
